This is an account of results in patent US9382265B2, “Oxazolidone compound, preparing method and application thereof” (SHANGHAI INSTITUTE OF MATERIA MEDICA, CHINESE ACADEMY OF …, priority 2013, dated 2016).

Series [1] deals with T1, human recombinant FXa (Homo sapiens, UniProt P00742).
T1 construct: purchased Calbiochem; host or cells: human plasma
The series is described as follows: FXa inhibitory activity assay (chromogenic substrate, 405 nm). It counts as biochemical. Conditions: inhibitory activity on FXa, preincubated at 37° C. for 10 mins. The method, then: Experimental principle and method: FXa cuts the Arg carboxyl end in the substrate N-Z-D-Arg-Gly-Arg-pDA in vitro and releases p-nitrophenylamine which has specific absorption at 405 nm wavelength. The amount of the […] generated is determined at 405 nm to evaluate the activity of the compound to inhibit the human recombinant FXa in vitro.
Human plasma coagulation factor Xa was purchased from Calbiochem; the substrate N-Z-D-Arg-Gly-Arg-pDA was purchased from chromogenic. The subject compound, enzyme and the reaction buffer were mixed and preincubated at 37° C. for 10 mins. The substrate was added. The absorption at 405 nm wavelength was measured continuously over 20 mins. At the same time, a blank control group (without enzyme, 100% inhibition rate) and a negative control group (replace the subject compound with DMSO, 0% inhibition rate) were set up. The reaction system was 100 μl (50 μl of Tris buffer, 10 μl of compound, 20 μl (0.027 U/ml) of enzyme, 20 μl (300 μM) of substrate). Each concentration of each sample was assayed in triplicate. The experiment was carried out for 2 times independently.

Series [2] is described as follows: in vivo. The method, then: Healthy male SD rats, body weight 200-220 g, randomly divided into 6 groups with each group 3-4 rats, were administered with the subject compound via intragastric administration and intravenous injection, respectively.
The subject compound was prepared with 5% DMSO/5% Twain 80/90% saline into solution for administration.
The rats were fasted for 12 hrs before experiment, free water-drinking, and were all fed 2 h after administration. Blood sampling time and sample treatment:
intragastric administration: 0.25, 0.5, 1.0, 2.0, 3.0, 4.0, 6.0, 8.0, and 24 h after administration;
intravenous administration: 5 min, 0.25, 0.5, 1.0, 2.0, 4.0, 6.0, 8.0, and 24 h after administration.
At the time points defined above, 0.3 ml of venous blood was taken from the posterior venous plexus of rats to heparinized tubes, centrifuged at 11000 rpm for 5 mins to separate the plasma, which was then frozen at −20° C. in a refrigerator.

The test system of series [3] is rabbit sodium citrate anticoagulant plasma. The series is described as follows: In vitro anticoagulant activity: prothrombin time (PT). The format is biochemical. Conditions: compound concentration that prolonged the PT time by 1 time vs blank control. The method, then:
The experiment used […]-1 immunomagnetic single channel semi-automated blood coagulation analyzer to measure blood coagulation time. Principle: An excessive amount of tissue thromboplastin (infusion of preparations such as human brain, rabbit brain, placenta, and lung tissue) and calcium ion are added to the plasma to be tested, thereby converting prothrombin into thrombin, and the latter converts fibrinogen into fibrin. The time needed for plasma coagulation is observed as prothrombin time. This experiment is the most commonly used screening test for the evaluation of an extrinsic coagulation system. Test method: To the rabbit sodium citrate anticoagulant plasma (3.8% sodium citrate, 1:9 mixture) were added various concentrations of the compounds to be tested. PT reagents ([…], Beijing) were used to measure the prothrombin activation time. The compound concentration that prolonged the PT time by 1 time, when compared with the blank control, was recorded as PT2, thereby evaluating the anticoagulant activity of the compounds. Rabbit sodium citrate anticoagulant plasma (3.8% sodium citrate plasma, 1:9 mixture) was purchased from Guangzhou Ruite Bio company; […]-1 immunomagnetic single channel semi-automated blood coagulation analyzer and […] blood coagulation 3-item reagents were purchased from Beijing […] instrument company. […] Each concentration of each sample was assayed in 3-6 duplicate wells, and the experiment was independently carried out for 2-3 times.

Series [4] shares this test system. The series is described as follows: In vitro anticoagulant activity: activated partial thromboplastin time (APTT). It counts as biochemical. The settings on record: compound concentration that prolonged the APTT time by 1 time vs blank control. As for the experimental part:
The experiment used […]-1 immunomagnetic single channel semi-automated blood coagulation analyzer to measure blood coagulation time. Principle: At 37° C., using Kaolin to activate factors □ and □; using cephalin (partial thromboplastin) to replace platelet factor 3; and in the presence of Ca^2+, the time needed for the coagulation of plasma which lacks of platelet is observed as activated partial thromboplastin time. This experiment is a screening test which is sensitive and commonly used for the endogenous blood coagulation system. Test method: To the rabbit sodium citrate anticoagulant plasma (3.8% sodium citrate, 1:9 mixture) were added various concentrations of the compounds to be tested. APTT reagents ([…], Beijing) were used to measure the […] activation time. The compound concentration that prolonged the APTT time by 1 time, when compared with the blank control, was recorded as APTT2, thereby evaluating the anticoagulant activity of the compounds. Rabbit sodium citrate anticoagulant plasma (3.8% sodium citrate plasma, 1:9 mixture) was purchased from Guangzhou Ruite Bio company; […]-1 immunomagnetic single channel semi-automated blood coagulation analyzer and […] blood coagulation 3-item reagents were purchased from Beijing […] instrument company. […] Each concentration of each sample was assayed in 3-6 duplicate wells, and the experiment was independently carried out for 2-3 times.

Series [5] deals with thrombus formation. The series is described as follows: In vivo anticoagulant activity: electrically induced carotid artery thrombus formation time. On the set-up: species or system rat. The settings on record: for ED50: Rattus norvegicus, po, male SD rats, intragastric administration, 3 mA electrical stimulation of left common carotid artery 1 h after administration, read-out: ED50 for prolonging the thrombus formation time. As for the experimental part:
The rats were fasted for 12 h, then weighted, and treated by intragastric administration. After 45 min, the rats were anesthetized with chloral hydrate (350 mg/kg), immobilized, and the left common carotid artery was exposed by surgery. The artery and the surrounding tissue were separated by plastic wrap. Electrical stimulation was started 1 h after intragastric administration. The stimulation electrode of the BT87-4 tester for experimental in vivo thrombus formation was placed at the end of the blood vessels proximal to the heart. 3 mA current was used for a 2 min of stimulation. The instrument started the timer automatically when the stimulation began. The stimulation switch was turned off when the stimulation ended. The stimulation electrode was removed, and a thermostat probe was placed at the end of the artery on the stimulation site, which end is distal to the heart. At the time of 600 seconds, the pointer of the thermostat panel was slowly moved to the position of 0. The time from the start of simulation to the alarm of the instrument was recorded as the time of blood vessel blockage (or the time of thrombus formation). If a drug has antithrombosis effect, the time of thrombus formation (time of blood vessel blockage) will be prolonged. IBM SPSS Statistics 20 software was used for the t test of the experimental data.

The mark [6] stands for this setting: male, SD, rat, in vivo, iv, 3 mg/kg.
Setting [7] is: male, SD, rat, in vivo, po, 10 mg/kg.
Where [8] appears, read: male, SD, rat, in vivo, iv, 4.5 mg/kg.
Setting [9] is: male, SD, rat, in vivo, po, 9 mg/kg.

T1 sequence (P00742 235-488 limits assumed): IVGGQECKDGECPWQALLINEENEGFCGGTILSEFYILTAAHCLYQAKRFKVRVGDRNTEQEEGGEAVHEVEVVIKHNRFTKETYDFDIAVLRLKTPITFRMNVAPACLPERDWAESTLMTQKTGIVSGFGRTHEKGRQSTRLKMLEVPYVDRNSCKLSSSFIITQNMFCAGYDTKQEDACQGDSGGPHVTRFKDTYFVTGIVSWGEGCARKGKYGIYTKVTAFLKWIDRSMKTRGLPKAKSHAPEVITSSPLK
T1 sequence (P00742 41-179 partner limits assumed): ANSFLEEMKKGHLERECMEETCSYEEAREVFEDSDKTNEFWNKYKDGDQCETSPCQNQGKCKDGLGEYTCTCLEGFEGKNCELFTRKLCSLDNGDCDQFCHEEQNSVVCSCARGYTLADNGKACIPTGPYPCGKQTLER

As a reminder, the IC50 is the concentration that inhibits the measured activity by half. In general, MRT refers to the average time that molecules of a dose stay in the body. As usually defined, the Vss is the apparent volume that relates the amount in the body to the concentration in plasma or blood. Read a low Vss as confinement near the circulation. What is called Cmax is the highest concentration seen after dosing. As usually defined, the Tmax is the time at which the peak concentration occurs. A word on the ED50: it is the dose that gives a 50% effect, or the effect in half of the subjects. As for `O=C(NC[C@@H]1OC(=O)N2c3ccc(N4CCOCC4=O)cc3OC[C@@H]12)c1ccc(Cl)s1` [Compound 1, 5-chloro-N-(((3S,3aS)-1-oxo-7-(3-oxomorpholin-4-yl)-1,3,3a,4-tetrahydrobenzo[b]oxazolo[3,4-d][1,4]oxazin-3-yl)methyl)thiophene-2-carboxamide], in series [1], the IC50 came to 2.25 ± 0.01 nM. The F in series [2] (male, SD, rat, in vivo) came to 63.7%. In series [2] (setting [6]), this compound showed a CLz of 3.35 mL/min/kg, an MRT of 1.03 h, a T1/2 of 1.00 h and a Vss of 0.201 L/kg. Besides, in series [2] (setting [7]), the Cmax is 11901 ng/mL, the MRT turned out to be 2.23 h, the T1/2 is reported as 1.33 h and the Tmax amounted to 0.75 h. Also, in series [2] (rat, in vivo, iv, 3 mg/kg), the AUC0-t is given as 15324 ngh/mL and the “AUC0-∞” value turned out to be 15339 ngh/mL. Further, in series [2] (rat, in vivo, po, 10 mg/kg), the AUC0-t came to 32529 ngh/mL and the “AUC0-∞” value was 33044 ngh/mL. For the same compound, in series [3], the PT2 amounted to 0.184 µM. In series [4], this compound yielded an APTT2 of 0.141 µM. In addition, the ED50 in series [5] was determined as 2.97 mg/kg. Moreover, the “activity relative to rivaroxaban” value in series [5] (ratio of ED50s for prolonging thrombus formation time, rats) was 1.53 times.
Regarding `O=C(NC[C@@H]1OC(=O)N2c3ccc(N4CCCCC4=O)cc3OC[C@@H]12)c1ccc(Cl)s1` [Compound 2, 5-chloro-N-(((3S,3aS)-1-oxo-7-(2-oxopiperidin-1-yl)-1,3,3a,4-tetrahydrobenzo[b]oxazolo[3,4-d][1,4]oxazin-3-yl)methyl)thiophene-2-carboxamide], the F in series [2] (male, SD, rat, in vivo) was found to be 42.0%. In series [2] (setting [8]), this compound displayed a CLz of 2.28 mL/min/kg, an MRT of 3.04 h and a Vss of 0.406 L/kg. Also, in series [2] (setting [9]), the Cmax came out at 6927 ng/mL, the MRT is 3.4 h and the Tmax turned out to be 0.67 h. Further, in series [2] (rat, in vivo, iv, 4.5 mg/kg), the AUC0-t is on record as 31057 ngh/mL and the “AUC0-∞” value turned out to be 33562 ngh/mL. Further, in series [2] (rat, in vivo, po, 9 mg/kg), the AUC0-t is recorded as 26119 ngh/mL and the “AUC0-∞” value came to 28527 ngh/mL. Besides, the T1/2 in series [2] (rats, intravenous injection (4.5 mg/Kg)) was determined as 1.95 h. In addition, the T1/2 in series [2] (rats, oral administration (9 mg/Kg)) is given as 2.10 h. This compound also gave a PT2 in series [3] of 1.06 µM. This compound also gave an APTT2 in series [4] of 0.932 µM.
As to `O=C(NC[C@@H]1OC(=O)N2c3ccc(N4CCOCC4=O)cc3OC[C@@H]12)c1ccc(Cl)cc1` [Compound 17, 4-chloro-N-(((3S,3aS)-1-oxo-7-(3-oxomorpholin-4-yl)-1,3,3a,4-tetrahydrobenzo[b]oxazolo[3,4-d][1,4]oxazin-3-yl)methyl)benzamide], the IC50 in series [1] stood at 12.2 ± 10.5 nM.
Still for that read-out and setting: the result for `O=C(NC[C@@H]1OC(=O)N2c3ccc(N4CC[C@@H](F)CC4=O)cc3OC[C@@H]12)c1ccc(Cl)s1` [Compound 33, 5-chloro-N-(((3S,3aS)-7-((R)-4-fluro-2-oxopiperidin-1-yl)-1-oxo-1,3,3a,4-tetrahydrobenzo[b]oxazolo[3,4-d][1,4]oxazin-3-yl)methyl)-thiophene-2-carboxamide] reads 15 ± 1.6 nM.
Regarding `O=C(NC[C@@H]1OC(=O)N2c3ccc(N4CC[C@H](F)CC4=O)cc3OC[C@@H]12)c1ccc(Cl)s1` [Compound 34, 5-chloro-N-(((3S,3aS)-7-((S)-4-fluro-2-oxopiperidin-1-yl)-1-oxo-1,3,3a,4-tetrahydrobenzo[b]oxazolo[3,4-d][1,4]oxazin-3-yl)methyl)-thiophene-2-carboxamide], in series [1], the IC50 worked out at 19.3 ± 3.39 nM.
On the same count and under the same terms, in the case of `NS(=O)(=O)c1ccccc1-c1ccc2c(c1)OC[C@H]1[C@H](CNC(=O)c3ccc(Cl)s3)OC(=O)N21` [Compound 35, 5-chloro-N-(((3S,3aS)-1-oxo-7-(2-aminosulfonylphenyl)-1,3,3a,4-tetrahydrobenzo[b]oxazolo[3,4-d][1,4]oxazin-3-yl)methyl)thiophene-2-carboxamide] it was 19.6 ± 16.9 nM.
The same measure, in the same setting: the result for `CS(=O)(=O)c1ccccc1-c1ccc2c(c1)OC[C@H]1[C@H](CNC(=O)c3ccc(Cl)s3)OC(=O)N21` [Compound 36, 5-chloro-N-(((3S,3aS)-7-(2-(methylsulfonyl)phenyl)-1-oxo-1,3,3a,4-tetrahydrobenzo[b]oxazolo[3,4-d][1,4]oxazin-3-yl)methyl)thiophene-2-carboxamide] reads 12.2 ± 4.08 nM.
The term Vd denotes a proportionality between amount in the body and measured concentration, not a real space. One may read the half-life as how long it takes for the measured level to halve. Lower therefore signals fast loss. Compound `O=C(NC[C@H]1CN(c2ccc(N3CCOCC3=O)cc2)C(=O)O1)c1ccc(Cl)s1` [rivaroxaban, reference compound] returned a F in series [2] (male, SD, rat, in vivo) of 4.6%. In series [2] (setting [6]), this compound showed a CLz of 4.75 mL/min/kg, an MRT of 0.88 h, a Vd of 0.25 L/kg and a half-life of 0.98 h. Besides, in series [2] (setting [7]), the Cmax amounted to 440 ng/mL, the MRT came out at 7.01 h, the Tmax came out at 0.56 h and the half-life was 4.64 h. For the same compound, in series [2] (rat, in vivo, iv, 3 mg/kg), the AUC0-t was found to be 10548 ngh/mL and the “AUC0-∞” value came to 10575 ngh/mL. Moreover, in series [2] (rat, in vivo, po, 10 mg/kg), the AUC0-t is on record as 1608 ngh/mL and the “AUC0-∞” value stood at 2242 ngh/mL. In series [3], this compound yielded a PT2 of 0.399 µM. The APTT2 in series [4] is 0.315 µM. The ED50 in series [5] stood at 4.53 mg/kg.
